Experimental data taken from ChEMBL document CHEMBL1201862, “PubChem BioAssay data set” (2004).
The source made the active and inactive calls.

How the values were obtained:
[1] = molecular target: Sphingosine 1-phosphate receptor 4 (Homo sapiens, UniProt O95977); assay: Fluorescence dose response cell-based high throughput screening assay for antagonists of the Sphingosine 1-Phosphate Receptor 4 (S1P4). [Related pubchem assays: 1524 (Confirmation in triplicates.), 1510 (Primary screen.)]; type: functional
[2] = general mammalian cell viability loss – inhibitor set, cherry-pick, set 2, cytotoxicity control for miR-122 modulator project, dose response (AID 720697); type: functional, cell-based
[3] = molecular target: T1, Orexin/Hypocretin receptor type 1 (Homo sapiens, UniProt O43613); assay: Homogeneous Time Resolved Fluorescence (HTRF)-based cell-based high throughput dose response assay for antagonists of the orexin 1 receptor (OX1R; HCRTR1). [Related pubchem assays (depositor defined):AID434989, AID435008, AID463079, AID485270, AID492963, AID492964, AID492965, AID493232, AID504717, AID504718]; type: functional;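 further: antagonism measured against Orexin-A challenge at about its EC80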
T1 sequence (O43613 whole entry): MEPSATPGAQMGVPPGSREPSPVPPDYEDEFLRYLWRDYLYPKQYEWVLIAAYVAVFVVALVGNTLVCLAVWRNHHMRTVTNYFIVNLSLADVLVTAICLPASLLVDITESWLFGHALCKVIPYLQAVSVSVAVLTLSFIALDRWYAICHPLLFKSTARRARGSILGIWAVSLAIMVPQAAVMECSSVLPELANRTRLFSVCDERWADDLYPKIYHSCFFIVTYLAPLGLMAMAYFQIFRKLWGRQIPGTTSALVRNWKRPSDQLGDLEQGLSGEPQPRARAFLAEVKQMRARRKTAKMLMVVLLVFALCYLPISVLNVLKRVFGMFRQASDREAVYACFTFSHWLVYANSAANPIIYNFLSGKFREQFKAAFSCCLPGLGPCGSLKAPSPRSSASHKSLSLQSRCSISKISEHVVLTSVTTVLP

[4] = molecular target: T2, Protein RecA (Mycobacterium tuberculosis, UniProt P9WHJ3); assay: Fluorescence Cell-Free Homogeneous Dose Retest to Identify Inhibitors of RecA-Intein Splicing Activity. [Related pubchem assays (depositor defined):AID2097, AID2223, AID489010, AID492950]; type: functional
T2 sequence (P9WHJ3 whole entry): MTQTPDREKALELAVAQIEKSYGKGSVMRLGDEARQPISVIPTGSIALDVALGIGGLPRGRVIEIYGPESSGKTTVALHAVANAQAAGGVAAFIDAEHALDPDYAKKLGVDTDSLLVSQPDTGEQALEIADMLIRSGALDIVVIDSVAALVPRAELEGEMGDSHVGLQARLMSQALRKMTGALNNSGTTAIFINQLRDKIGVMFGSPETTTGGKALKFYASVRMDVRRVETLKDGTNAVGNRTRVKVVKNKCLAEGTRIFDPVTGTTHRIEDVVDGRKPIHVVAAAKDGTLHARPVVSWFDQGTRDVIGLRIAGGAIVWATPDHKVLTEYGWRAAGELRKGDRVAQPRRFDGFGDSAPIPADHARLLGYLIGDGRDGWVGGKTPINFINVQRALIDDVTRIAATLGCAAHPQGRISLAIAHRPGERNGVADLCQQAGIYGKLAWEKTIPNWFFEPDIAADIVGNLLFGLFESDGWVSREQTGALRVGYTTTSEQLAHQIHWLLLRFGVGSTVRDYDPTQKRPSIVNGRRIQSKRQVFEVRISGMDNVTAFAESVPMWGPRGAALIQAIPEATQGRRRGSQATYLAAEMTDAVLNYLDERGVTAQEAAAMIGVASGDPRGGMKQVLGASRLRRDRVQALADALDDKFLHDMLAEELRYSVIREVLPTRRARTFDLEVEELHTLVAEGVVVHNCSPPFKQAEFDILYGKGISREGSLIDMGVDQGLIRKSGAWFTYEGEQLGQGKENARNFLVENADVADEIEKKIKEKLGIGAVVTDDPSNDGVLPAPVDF

[5] = molecular target: Beta Lactamase (Pseudomonas aeruginosa, UniProt Q932Y6); assay: BLA reporter interference, concentration series – BLA reporter cells, FRET fluorescence, artefact control for TLR9-MyD88 binding inhibitor project, dose response (AID 588341); type: cell-based;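 further: cell based assay in CHO-K1 cells stably expressing beta-lactamase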
[6] = molecular target: Orexin receptor type 2 (Homo sapiens, UniProt O43614); assay: Counterscreen assay for antagonists of the orexin 1 receptor (OX1R; HCRTR1): Homogeneous Time Resolved Fluorescence (HTRF)-based cell-based dose response assay for antagonists of the orexin 2 receptor (OX2R; HCRTR2), run by assay provider.; type: functional
[7] = molecular target: Intestinal-type alkaline phosphatase (Homo sapiens, UniProt P09923); assay: inhibition of human intestinal alkaline phosphatase – biochemical, dose response (AID 488876); type: functional
[8] = molecular target: T3, RNA-binding protein pos-1 (Caenorhabditis elegans, UniProt G5EF15); assay: disruptors of C. elegans POS-1 RNA interaction – biochemical, fluorescence polarization, dose response (AID 1964);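 further: purified POS-1 fused to maltose binding protein made in E. coli; potency of compounds blocking POS-1 binding to fluorescent RNA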
T3 sequence (G5EF15 whole entry): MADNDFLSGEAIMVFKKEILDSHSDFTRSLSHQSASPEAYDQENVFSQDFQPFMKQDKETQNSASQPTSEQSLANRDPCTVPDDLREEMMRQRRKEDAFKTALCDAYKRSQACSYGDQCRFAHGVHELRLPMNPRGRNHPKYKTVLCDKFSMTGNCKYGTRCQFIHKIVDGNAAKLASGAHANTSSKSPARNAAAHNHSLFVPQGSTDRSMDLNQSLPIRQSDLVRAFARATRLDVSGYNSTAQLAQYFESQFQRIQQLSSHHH

[9] = molecular target: SUMO-activating enzyme (Homo sapiens, UniProt Q9UBT2); assay: blockers of UBC9-mediated SUMO conjugation – biochemical, AlphaScreen, SUMOylation inhibitor project, confirmation (AID 2018); type: functional
[10] = molecular target: Mitogen-activated protein kinase kinase kinase kinase 4 (Homo sapiens, UniProt O95819); type: functional
[11] = molecular target: Cyclin-dependent kinase 9 (Homo sapiens, UniProt P50750); type: functional;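 further: value from the CDK9 entry of a kinome-spanning kinase panel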
[12] = molecular target: Focal adhesion kinase 1 (Homo sapiens, UniProt Q05397); type: functional;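 further: measured as one member of a kinome panel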
[13] = molecular target: Serine/threonine-protein kinase Chk1 (Homo sapiens, UniProt O14757); type: functional;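 further: measured as one member of a kinome-wide kinase profiling panel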
[14] = molecular target: Activin receptor type-1 (Homo sapiens, UniProt Q04771); assay: Navigating the Kinome. Panel member name: ACVR1; type: functional
[15] = NIH3T3 cell viability loss – ATP luminescence, mouse fibroblasts, counter-screen, dose response (AID 2010); type: functional, cell-based;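 further: cells exposed to compound for about 90 hours before reading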
[16] = HIV-1 AD8 envelope cell-cell fusion blockers – cherry-pick, dose response (AID 652062); type: functional, cell-based;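 further: luciferase signal from cell-cell fusion driven by HIV-1 clade B AD8 Env; potency is for inhibitors of fusion seen as a drop in luminescence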

Sequence of Cyclin-dependent kinase 9 (P50750 whole entry): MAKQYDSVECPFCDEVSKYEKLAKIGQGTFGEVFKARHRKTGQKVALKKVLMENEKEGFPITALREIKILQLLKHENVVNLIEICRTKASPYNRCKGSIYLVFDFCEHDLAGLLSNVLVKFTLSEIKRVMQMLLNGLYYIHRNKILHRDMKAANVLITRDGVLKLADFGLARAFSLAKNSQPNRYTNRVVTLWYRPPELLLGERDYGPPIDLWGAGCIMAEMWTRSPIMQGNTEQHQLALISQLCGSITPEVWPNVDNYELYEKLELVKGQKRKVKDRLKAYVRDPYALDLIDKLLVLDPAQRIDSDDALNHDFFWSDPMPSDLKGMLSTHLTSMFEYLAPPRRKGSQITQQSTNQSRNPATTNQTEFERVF
Sequence of Activin receptor type-1 (Q04771 whole entry): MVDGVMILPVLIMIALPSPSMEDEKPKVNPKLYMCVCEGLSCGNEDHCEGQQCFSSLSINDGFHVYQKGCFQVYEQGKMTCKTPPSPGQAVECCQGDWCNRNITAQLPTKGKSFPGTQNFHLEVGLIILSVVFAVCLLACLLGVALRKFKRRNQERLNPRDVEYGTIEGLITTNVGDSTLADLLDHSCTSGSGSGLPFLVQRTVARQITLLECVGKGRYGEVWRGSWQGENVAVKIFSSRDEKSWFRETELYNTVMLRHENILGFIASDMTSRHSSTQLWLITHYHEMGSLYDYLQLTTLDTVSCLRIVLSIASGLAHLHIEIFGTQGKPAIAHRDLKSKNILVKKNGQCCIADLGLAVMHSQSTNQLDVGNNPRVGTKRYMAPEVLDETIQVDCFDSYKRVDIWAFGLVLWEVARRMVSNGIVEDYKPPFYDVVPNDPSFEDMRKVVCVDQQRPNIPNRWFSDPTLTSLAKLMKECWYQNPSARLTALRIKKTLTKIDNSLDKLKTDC
Sequence of Serine/threonine-protein kinase Chk1 (O14757 whole entry): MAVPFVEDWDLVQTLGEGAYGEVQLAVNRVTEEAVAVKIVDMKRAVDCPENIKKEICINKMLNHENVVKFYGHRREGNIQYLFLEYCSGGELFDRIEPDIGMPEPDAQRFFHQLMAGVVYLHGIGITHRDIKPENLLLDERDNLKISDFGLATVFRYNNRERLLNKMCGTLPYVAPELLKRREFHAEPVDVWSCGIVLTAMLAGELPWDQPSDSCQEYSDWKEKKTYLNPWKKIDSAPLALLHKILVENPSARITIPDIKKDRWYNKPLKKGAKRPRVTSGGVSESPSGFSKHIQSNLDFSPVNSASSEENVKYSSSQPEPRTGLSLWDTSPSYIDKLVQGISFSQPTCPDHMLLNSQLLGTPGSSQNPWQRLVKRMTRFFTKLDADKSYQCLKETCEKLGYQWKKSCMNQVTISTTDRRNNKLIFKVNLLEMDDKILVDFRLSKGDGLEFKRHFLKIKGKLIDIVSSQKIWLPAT
Sequence of Intestinal-type alkaline phosphatase (P09923 whole entry, the tested form may be a part): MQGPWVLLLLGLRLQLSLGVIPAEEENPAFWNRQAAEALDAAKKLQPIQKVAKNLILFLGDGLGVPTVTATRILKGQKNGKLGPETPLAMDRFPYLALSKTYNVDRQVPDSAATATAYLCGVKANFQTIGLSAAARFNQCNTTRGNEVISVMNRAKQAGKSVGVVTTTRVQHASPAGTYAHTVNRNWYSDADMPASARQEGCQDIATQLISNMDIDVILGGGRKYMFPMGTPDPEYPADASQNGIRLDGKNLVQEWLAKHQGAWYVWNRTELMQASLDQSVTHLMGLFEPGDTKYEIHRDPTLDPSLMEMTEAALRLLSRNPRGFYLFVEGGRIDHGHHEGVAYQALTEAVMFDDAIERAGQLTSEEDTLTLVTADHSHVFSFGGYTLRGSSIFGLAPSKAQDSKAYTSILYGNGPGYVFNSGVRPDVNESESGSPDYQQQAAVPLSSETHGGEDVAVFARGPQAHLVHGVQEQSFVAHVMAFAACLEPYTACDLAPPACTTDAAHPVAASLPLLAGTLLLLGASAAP
Sequence of Beta Lactamase (Q932Y6 whole entry): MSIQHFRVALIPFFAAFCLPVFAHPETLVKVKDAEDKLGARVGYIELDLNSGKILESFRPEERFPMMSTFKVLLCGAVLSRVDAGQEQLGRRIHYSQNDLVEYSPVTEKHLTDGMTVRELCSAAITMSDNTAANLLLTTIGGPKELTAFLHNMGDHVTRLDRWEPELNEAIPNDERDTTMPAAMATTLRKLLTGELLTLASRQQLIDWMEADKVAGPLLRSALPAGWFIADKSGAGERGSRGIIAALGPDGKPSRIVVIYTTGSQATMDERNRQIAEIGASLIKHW
Sequence of SUMO-activating enzyme (Q9UBE0 whole entry): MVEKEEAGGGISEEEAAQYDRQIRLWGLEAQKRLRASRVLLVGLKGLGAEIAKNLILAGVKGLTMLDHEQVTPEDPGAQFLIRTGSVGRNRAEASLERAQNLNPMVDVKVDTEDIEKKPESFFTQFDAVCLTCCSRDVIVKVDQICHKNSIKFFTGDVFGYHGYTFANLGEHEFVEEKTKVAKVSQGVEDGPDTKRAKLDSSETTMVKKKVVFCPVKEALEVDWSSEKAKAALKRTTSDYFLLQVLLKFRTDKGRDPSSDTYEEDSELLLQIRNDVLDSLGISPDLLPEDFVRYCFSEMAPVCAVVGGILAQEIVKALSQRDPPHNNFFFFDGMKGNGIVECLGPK
Sequence of SUMO-activating enzyme (Q9UBT2 whole entry): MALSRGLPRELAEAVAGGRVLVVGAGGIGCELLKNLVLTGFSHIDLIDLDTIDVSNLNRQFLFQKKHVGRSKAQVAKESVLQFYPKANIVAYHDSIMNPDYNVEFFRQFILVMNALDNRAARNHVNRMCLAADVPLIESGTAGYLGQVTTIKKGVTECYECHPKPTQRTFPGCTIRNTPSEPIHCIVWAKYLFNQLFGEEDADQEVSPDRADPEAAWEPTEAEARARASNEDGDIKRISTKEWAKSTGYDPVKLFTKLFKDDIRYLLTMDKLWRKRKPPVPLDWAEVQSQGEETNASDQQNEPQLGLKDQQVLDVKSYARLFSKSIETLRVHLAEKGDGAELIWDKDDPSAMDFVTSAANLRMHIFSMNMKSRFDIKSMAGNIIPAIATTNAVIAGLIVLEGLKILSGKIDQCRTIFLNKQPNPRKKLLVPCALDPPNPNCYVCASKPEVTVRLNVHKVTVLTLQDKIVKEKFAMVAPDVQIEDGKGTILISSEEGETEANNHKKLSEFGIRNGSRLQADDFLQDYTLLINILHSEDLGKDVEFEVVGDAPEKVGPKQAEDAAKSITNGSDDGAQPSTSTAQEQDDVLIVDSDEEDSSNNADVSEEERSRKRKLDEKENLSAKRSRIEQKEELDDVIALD
Sequence of Focal adhesion kinase 1 (Q05397 whole entry): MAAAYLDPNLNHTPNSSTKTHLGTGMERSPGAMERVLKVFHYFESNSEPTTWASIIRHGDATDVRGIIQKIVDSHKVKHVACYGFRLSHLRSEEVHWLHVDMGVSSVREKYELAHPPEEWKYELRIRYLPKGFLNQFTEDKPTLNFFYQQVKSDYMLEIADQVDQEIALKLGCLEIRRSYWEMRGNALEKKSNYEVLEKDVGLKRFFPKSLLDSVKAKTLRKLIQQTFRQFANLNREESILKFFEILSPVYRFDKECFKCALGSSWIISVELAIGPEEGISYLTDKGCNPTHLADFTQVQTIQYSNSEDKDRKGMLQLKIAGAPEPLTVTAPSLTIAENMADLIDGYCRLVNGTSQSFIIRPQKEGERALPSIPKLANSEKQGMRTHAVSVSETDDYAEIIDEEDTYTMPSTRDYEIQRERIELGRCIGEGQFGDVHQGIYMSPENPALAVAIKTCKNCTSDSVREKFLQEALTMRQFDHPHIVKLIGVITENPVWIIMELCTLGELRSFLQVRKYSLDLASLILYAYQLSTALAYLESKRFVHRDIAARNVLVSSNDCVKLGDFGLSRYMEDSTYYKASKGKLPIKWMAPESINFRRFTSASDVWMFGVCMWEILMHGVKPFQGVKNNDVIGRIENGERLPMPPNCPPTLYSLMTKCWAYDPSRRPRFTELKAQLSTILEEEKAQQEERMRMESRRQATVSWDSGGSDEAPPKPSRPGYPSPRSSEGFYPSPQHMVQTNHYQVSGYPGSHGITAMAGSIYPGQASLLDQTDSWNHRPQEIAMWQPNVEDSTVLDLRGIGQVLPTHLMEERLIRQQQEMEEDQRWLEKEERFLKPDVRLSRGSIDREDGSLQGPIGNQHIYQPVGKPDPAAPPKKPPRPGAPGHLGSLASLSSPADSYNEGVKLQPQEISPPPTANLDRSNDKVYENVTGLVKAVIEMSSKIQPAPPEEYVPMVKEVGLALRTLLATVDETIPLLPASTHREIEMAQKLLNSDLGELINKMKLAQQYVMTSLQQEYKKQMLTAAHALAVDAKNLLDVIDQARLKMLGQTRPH
Sequence of Sphingosine 1-phosphate receptor 4 (O95977 whole entry): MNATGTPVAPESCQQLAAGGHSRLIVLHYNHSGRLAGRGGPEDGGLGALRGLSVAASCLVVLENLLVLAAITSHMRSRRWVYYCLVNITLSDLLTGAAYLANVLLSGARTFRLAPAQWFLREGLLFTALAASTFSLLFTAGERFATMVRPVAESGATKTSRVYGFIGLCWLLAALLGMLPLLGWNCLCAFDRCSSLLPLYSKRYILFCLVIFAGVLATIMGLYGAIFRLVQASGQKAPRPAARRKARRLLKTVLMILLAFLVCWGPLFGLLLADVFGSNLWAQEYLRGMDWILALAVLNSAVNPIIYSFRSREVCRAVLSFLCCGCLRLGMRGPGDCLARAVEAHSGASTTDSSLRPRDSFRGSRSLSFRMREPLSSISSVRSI

## Cc1ccc(C(=O)OCn2ncc(Cl)c(Cl)c2=O)cc1
[1]
  IC50: 1.27 µM (active)
[2]
  AC50: 4.05 µM (active)
[3]
  IC50: 17.4 µM (inactive)
[4]
  EC50: 0.924 µM (active)
[5]
  IC50: 48.7 µM (inactive)
[6]
  IC50: > 50 µM (inactive)

## O=C(O)CC(C(=O)O)N1C(=O)/C(=C/C=C/c2ccco2)SC1=S (stereo unspecified)
[7]
  IC50: > 100 µM (inactive)
[8]
  EC50: 10.4 µM (active)
[9]
  IC50: 1.12 µM (active)

## O=C(Nc1cccc(C2Nc3ccc4ccccc4c3C3C=CCC32)c1)c1ccc(F)cc1 (stereo unspecified)
[10]
  Ki: > 5.01 µM (inactive)
[11]
  Ki: 0.251 µM (active)
[12]
  Ki: > 6.31 µM (inactive)

## Cc1ccc(-c2cc(-c3cc(Br)ccc3O)[nH]c(=O)c2C#N)s1
[13]
  Ki: > 3.16 µM (inactive)
[14]
  Ki: > 3.98 µM (inactive)

## CCCC(=O)NC(c1cccs1)c1cc(Cl)c2cccnc2c1O (stereo unspecified)
[15]
  EC50: 2.61 µM (active)
[16]
  AC50: 6.73 µM (active)
